“And” between values parts separate entries of the source, which are not always exact repeats. Equal values may be shown once.
System: 628569-122-R-J1-PDC complex spheroid viability
Test: Anticancer human tumor 628569-122-R-J1-PDC patient-derived head and neck squamous carcinoma cell line growth inhibition [CLK]
Conditions: for viability, T/C: stronger effect = lower value
Summary of the method: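 Multi-cell-type spheroids combined patient-derived tumor cells with HUVEC endothelial cells and human mesenchymal stem cells. Paired agents were dosed in half-log steps down from about clinical Cmax, or from 10 microM where Cmax was unknown.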

[1] = curve of first compound, second compound 0.0316 µM
[2] = curve of first compound, second compound 0.1 µM
[3] = curve of first compound, second compound 0.316 µM
[4] = curve of first compound, second compound 1 µM
[5] = curve of first compound, second compound 3.16 µM
[6] = curve of first compound, second compound 10 µM
[7] = second compound 0.0316 µM, first compound 0.0316 µM
[8] = second compound 0.0316 µM, first compound 0.1 µM
[9] = second compound 0.0316 µM, first compound 0.316 µM
[10] = second compound 0.0316 µM, first compound 1 µM
[11] = second compound 0.0316 µM, first compound 3.16 µM
[12] = second compound 0.0316 µM, first compound 10 µM
[13] = second compound 0.1 µM, first compound 0.0316 µM
[14] = second compound 0.1 µM, first compound 0.1 µM
[15] = second compound 0.1 µM, first compound 0.316 µM
[16] = second compound 0.1 µM, first compound 1 µM
[17] = second compound 0.1 µM, first compound 3.16 µM
[18] = second compound 0.1 µM, first compound 10 µM
[19] = second compound 0.316 µM, first compound 0.0316 µM
[20] = second compound 0.316 µM, first compound 0.1 µM
[21] = second compound 0.316 µM, first compound 0.316 µM
[22] = second compound 0.316 µM, first compound 1 µM
[23] = second compound 0.316 µM, first compound 3.16 µM
[24] = second compound 0.316 µM, first compound 10 µM
[25] = second compound 1 µM, first compound 0.0316 µM
[26] = second compound 1 µM, first compound 0.1 µM
[27] = second compound 1 µM, first compound 0.316 µM
[28] = second compound 1 µM, first compound 1 µM
[29] = second compound 1 µM, first compound 3.16 µM
[30] = second compound 1 µM, first compound 10 µM
[31] = second compound 3.16 µM, first compound 0.0316 µM
[32] = second compound 3.16 µM, first compound 0.1 µM
[33] = second compound 3.16 µM, first compound 0.316 µM
[34] = second compound 3.16 µM, first compound 1 µM
[35] = second compound 3.16 µM, first compound 3.16 µM
[36] = second compound 3.16 µM, first compound 10 µM
[37] = second compound 10 µM, first compound 0.0316 µM
[38] = second compound 10 µM, first compound 0.1 µM
[39] = second compound 10 µM, first compound 0.316 µM
[40] = second compound 10 µM, first compound 1 µM
[41] = second compound 10 µM, first compound 3.16 µM
[42] = second compound 10 µM, first compound 10 µM
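Further: spheroids exposed to agents for seven days before readout.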
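Wherever viability, T/C is given: 100% = DMSO vehicle control viability.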

C=C(F)C(=O)N1CCN(c2nc(OCC3CCCN3C)nc3c2CCN(c2cccc4cccc(Cl)c24)C3)CC1CC#N (stereo unspecified) + CN1CCN(c2cc(C(=O)Nc3cc4cc(-c5cnn(C)c5)ccc4cn3)ccn2)CC1
IC50 [1]: 7.26 µM
IC50 [2]: 4.56 µM
IC50 [3]: < 0.0316 µM
IC50 [4]: < 0.0316 µM
IC50 [5]: < 0.0316 µM
IC50 [6]: < 0.0316 µM
viability, T/C [7]: 102%
viability, T/C [8]: 80.5%
viability, T/C [9]: 98.3%
viability, T/C [10]: 108%
viability, T/C [11]: 113%
viability, T/C [12]: 30.6%
viability, T/C [13]: 64.3%
viability, T/C [14]: 67.4%
viability, T/C [15]: 64.1%
viability, T/C [16]: 62.7%
viability, T/C [17]: 87.9%
viability, T/C [18]: 8.57%
viability, T/C [19]: 35%
viability, T/C [20]: 37.6%
viability, T/C [21]: 34.7%
viability, T/C [22]: 32.2%
viability, T/C [23]: 39.1%
viability, T/C [24]: 2.52%
viability, T/C [25]: 7.05%
viability, T/C [26]: 4.72%
viability, T/C [27]: 5.61%
viability, T/C [28]: 5%
viability, T/C [29]: 5.11%
viability, T/C [30]: 1.51%
viability, T/C [31]: 6.63%
viability, T/C [32]: 4.67%
viability, T/C [33]: 7.01%
viability, T/C [34]: 6.75%
viability, T/C [35]: 3.34%
viability, T/C [36]: 0.55%
viability, T/C [37]: 1.82%
viability, T/C [38]: 2.41%
viability, T/C [39]: 3.57%
viability, T/C [40]: 3.3%
viability, T/C [41]: 0.98%
viability, T/C [42]: 1.32%

Nc1ccn(C2OC(CO)C(O)C2(F)F)c(=O)n1 (stereo unspecified) + CN1CCN(c2cc(C(=O)Nc3cc4cc(-c5cnn(C)c5)ccc4cn3)ccn2)CC1
IC50 [1]: > 10 µM
IC50 [2]: > 10 µM
IC50 [3]: < 0.0316 µM
IC50 [4]: < 0.0316 µM
IC50 [5]: < 0.0316 µM
IC50 [6]: < 0.0316 µM
viability, T/C [7]: 71.5%
viability, T/C [8]: 57.1%
viability, T/C [9]: 55.4%
viability, T/C [10]: 58.4%
viability, T/C [11]: 59%
viability, T/C [12]: 62.9%
viability, T/C [13]: 58.3%
viability, T/C [14]: 48.6%
viability, T/C [15]: 52.9%
viability, T/C [16]: 56.8%
viability, T/C [17]: 51.9%
viability, T/C [18]: 65.2%
viability, T/C [19]: 28.5%
viability, T/C [20]: 31.5%
viability, T/C [21]: 23.9%
viability, T/C [22]: 35.1%
viability, T/C [23]: 36.1%
viability, T/C [24]: 29.3%
viability, T/C [25]: 5.39%
viability, T/C [26]: 3.49%
viability, T/C [27]: 4.39%
viability, T/C [28]: 4.7%
viability, T/C [29]: 3.75%
viability, T/C [30]: 3.77%
viability, T/C [31]: 8.67%
viability, T/C [32]: 5.79%
viability, T/C [33]: 7.19%
viability, T/C [34]: 5%
viability, T/C [35]: 7.97%
viability, T/C [36]: 3.35%
viability, T/C [37]: 4.52%
viability, T/C [38]: 4.25%
viability, T/C [39]: 3.92%
viability, T/C [40]: 6.65%
viability, T/C [41]: 2.05%
viability, T/C [42]: 1.36%

C=C(F)C(=O)N1CCN(c2nc(OCC3CCCN3C)nc3c2CCN(c2cccc4cccc(Cl)c24)C3)CC1CC#N (stereo unspecified)
viability, T/C (compound 0.0316 µM): 79.5% and 98.1%
viability, T/C (compound 0.1 µM): 108% and 77.6%
viability, T/C (compound 0.316 µM): 85.4% and 79.5%
viability, T/C (compound 1 µM): 93.6% and 82.5%
viability, T/C (compound 3.16 µM): 116% and 123%
viability, T/C (compound 10 µM): 12.6% and 30.3%
IC50 (curve of compound): 5.99 µM and 6.93 µM
